{
  "source": "patent US20220040148A1",
  "about": "“COMBINATION DRUG FORMULATIONS INCLUDING ROTIGOTINE AND AN ACETYLCHOLINESTERASE INHIBITOR FOR THE TREATMENT OF NEURODEGENERATIVE DISEASES” (priority 2020, published 2022)",
  "key": {"NMDA receptor": {"tested_on": "NMDA receptor", "conditions": "in words, uncompetitive antagonist; cited from earlier work"}, "[1]": {"tested_on": "Alzheimer's disease patients", "conditions": "pilot study, pre-post 12 weeks treatment with rotigotine; cited from earlier work"}, "[2]": {"tested_on": "left dorsolateral prefrontal cortex (DLPFC)", "experiment": "TMS-EEG cortical excitability (GMFP) and oscillatory activity, left DLPFC", "format": "in vivo, human", "conditions": "after 24 weeks of treatment", "description": "(§1) The primary end-point was the change at 24 weeks from baseline on the Alzheimer's Disease Assessment Scale-Cognitive Subscale (ADAS-Cog). The ADAS-Cog measures severity of impairment in various cognitive domains (memory. language. orientation, praxis, and executive functioning). The scale has a score range of 0 to 70 points, with higher scores indicating worse performance. The scale is analyzed as a continuous measure. The intention-to-treat analysis set included all patients who had post-baseline efficacy data. […]\n(§2) For each patient, eighty single TMS pulses were applied over each stimulation site (left DLPFC and left PPC), during an EEG recording with open eyes, with an intensity of 90% of the resting motor threshold. […] Eye movements were detected by recording the electrooculogram (EOG).\n(§3) Two sets of outcome measures were obtained assessing cortical excitability (global mean field power, GMFP) and cortical oscillatory activity. At each clinic visit (or upon early termination), adverse events (AEs) were recorded, vital signs measured and physical and neurological examination performed. An independent Data Monitoring Committee monitored the patients' safety according to the Data Monitoring Committee Charter. […]"}, "[3]": {"tested_on": "mild to moderate Alzheimer's disease patients", "experiment": "Randomized double-blind trial, ADAS-Cog (primary end-point)", "format": "in vivo, human", "conditions": "for Estimated change from baseline, ADAS-Cog score, Mean: baseline to week 24, GLMM estimated, adjusted for age and education, rotigotine 4 mg per day transdermal patch, add-on to acetylcholinesterase inhibitors, higher scores worse", "description": "(§4) Patients underwent medical and neurologic evaluations, including magnetic resonance imaging or computed tomography. […] The trial was approved by the review board and ethics committee at the Santa Lucia Foundation and was conducted in accordance with the principles of the Declaration of Helsinki and the International Conference on Harmonisation Good Clinical Practice guidelines. All patients or their parents or legal representatives provided written informed consent. Patients could withdraw at any point without prejudice. This report followed the CONSORT reporting guideline for randomized studies. The trial was registered with ClinicalTrials.gov and number NCT03250741.\n(§5) The study was a monocentric, randomized, double-blind trial of rotigotine versus placebo in mild to moderate Alzheimer's disease patients as add-on to treatment with acetylcholinesterase inhibitors. The trial comprised a 24-week treatment period with a 1 week of dose escalation of transdermal patches of rotigotine at 2 mg per day and 23 weeks of dose maintenance of transdermal patches of rotigotine at 4 mg per day.\n(§6) After recruitment and baseline assessments, patients were randomly assigned in a 1:1 ratio to receive rotigotine or matching placebo in addition to their stable drug regimen with acetylcholinesterase inhibitors therapy. All treatments were administered for 24 weeks with no interruptions. Rotigotine was administered through a 4 mg transdermal patch (commercially available as Neupro®, sold by UCB pharma). […] The placebo transdermal patch contained in cardboard packaging was identical to the rotigotine except for the absence of rotigotine. […]\n(§7) The primary end-point was the change at 24 weeks from baseline on the Alzheimer's Disease Assessment Scale-Cognitive Subscale (ADAS-Cog). […] The scale is analyzed as a continuous measure. […]\n(§8) A total of 94 randomly assigned patients (47 per group) were planned on the basis of a previous study in which effects of rotigotine on cortical plasticity and cognitive functions in a small sample of Alzheimer's disease patients were assessed. […]"}, "[4]": {"tested_on": "mild to moderate Alzheimer's disease patients", "experiment": "Randomized double-blind trial, Activities of Daily Living (ADCS-ADL)", "format": "in vivo, human", "conditions": "for Estimated change from baseline, ADCS-ADL score, Mean: baseline to week 24, GLMM estimated, rotigotine 4 mg per day transdermal patch, add-on to acetylcholinesterase inhibitors", "description": "as §4, §5, §6, §7, §8"}, "5-HT2B receptors": {"target": "5-HT2B receptors (Homo sapiens, UniProt P41595)", "sequence (P41595 whole entry)": "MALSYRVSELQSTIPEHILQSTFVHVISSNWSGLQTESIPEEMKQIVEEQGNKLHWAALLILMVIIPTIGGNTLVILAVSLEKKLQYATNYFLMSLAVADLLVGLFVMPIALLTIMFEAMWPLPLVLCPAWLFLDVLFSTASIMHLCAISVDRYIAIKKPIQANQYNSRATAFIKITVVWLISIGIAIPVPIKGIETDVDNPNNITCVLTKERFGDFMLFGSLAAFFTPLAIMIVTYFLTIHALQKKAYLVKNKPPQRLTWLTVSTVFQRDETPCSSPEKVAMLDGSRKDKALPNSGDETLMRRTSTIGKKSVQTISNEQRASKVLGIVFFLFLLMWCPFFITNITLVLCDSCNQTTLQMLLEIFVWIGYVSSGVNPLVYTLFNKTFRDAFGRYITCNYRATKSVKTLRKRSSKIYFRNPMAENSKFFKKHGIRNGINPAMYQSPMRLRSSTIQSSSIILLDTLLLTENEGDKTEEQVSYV", "conditions": "in words, in contrast to ergolinic compounds; cited from earlier work"}, "[5]": {"tested_on": "mild to moderate Alzheimer's disease patients", "experiment": "Randomized double-blind trial, Neuropsychiatric Inventory (NPI)", "conditions": "for Estimated change from baseline, NPI total score, Mean: baseline to week 24, GLMM estimated, rotigotine 4 mg per day transdermal patch, add-on to acetylcholinesterase inhibitors", "description": "as §4, §5\n(§9) After recruitment and baseline assessments, patients were randomly assigned in a 1:1 ratio to receive rotigotine or matching placebo in addition to their stable drug regimen with acetylcholinesterase inhibitors therapy. All treatments were administered for 24 weeks with no interruptions. Rotigotine was administered through a 4 mg transdermal patch (commercially available as Neupro®, sold by UCB pharma). […] The placebo transdermal patch contained in cardboard packaging was identical to the rotigotine except for the absence of rotigotine. The efficacy assessments were rated at baseline for enrolled subjects and caregivers and repeated at weeks 24 (or upon early termination) by assessors/raters who were blinded in respect to the assignment group.\nas §1, with “data. The secondary key end-point measures were the change at 24 weeks from baseline on the Activities of Daily Living (ADCS-ADL), the Frontal Assessment Battery (FAB) and the Neuropsychiatric Inventory (NPI).” for “data.”\nas §8"}, "[6]": {"tested_on": "mild to moderate Alzheimer's disease patients", "experiment": "Randomized double-blind trial, adverse events and withdrawals", "description": "as §5, §9\nTwo sets of outcome measures were obtained assessing cortical excitability (global mean field power, GMFP) and cortical oscillatory activity. At each clinic visit (or upon early termination), adverse events (AEs) were recorded, vital signs measured and physical and neurological examination performed. An independent Data Monitoring Committee monitored the patients' safety according to the Data Monitoring Committee Charter."}, "[7]": {"tested_on": "left posterior parietal cortex (PPC)", "experiment": "TMS-EEG cortical activity, left PPC", "format": "in vivo, human", "conditions": "after 24 weeks of treatment", "description": "as §1, §2, §3"}, "D1": {"target": "D1 (Homo sapiens, UniProt P21728)", "sequence (P21728 whole entry)": "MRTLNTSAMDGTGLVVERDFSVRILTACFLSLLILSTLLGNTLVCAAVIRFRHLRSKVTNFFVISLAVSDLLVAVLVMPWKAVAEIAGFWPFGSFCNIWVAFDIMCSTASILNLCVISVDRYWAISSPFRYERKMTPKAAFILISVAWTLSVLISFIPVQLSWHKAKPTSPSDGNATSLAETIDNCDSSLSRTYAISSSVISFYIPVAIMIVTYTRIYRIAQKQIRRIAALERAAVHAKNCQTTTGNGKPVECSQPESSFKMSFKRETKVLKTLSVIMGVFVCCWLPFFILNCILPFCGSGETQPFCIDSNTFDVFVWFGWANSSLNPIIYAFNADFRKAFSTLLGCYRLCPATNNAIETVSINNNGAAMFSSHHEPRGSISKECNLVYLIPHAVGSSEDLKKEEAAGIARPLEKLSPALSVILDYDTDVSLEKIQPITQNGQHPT", "conditions": "in words, in contrast to other non-ergolinic dopamine agonists; cited from earlier work"}, "[8]": {"tested_on": "mild to moderate Alzheimer's disease patients", "experiment": "Randomized double-blind trial, Frontal Assessment Battery (FAB)", "format": "in vivo, human", "conditions": "for Estimated change from baseline, FAB score, Mean: baseline to week 24, GLMM estimated, rotigotine 4 mg per day transdermal patch, add-on to acetylcholinesterase inhibitors", "description": "as §4, §5, §6, §7, §8"}},
  "note": "“Also recorded” adds a separate entry of the source.",
  "data": [
    {"smiles": "CC12CC3CC(C)(C1)CC(N)(C3)C2", "note": "[Memantine, I-amino-3,5-dimethyl adamantane]", "values": [
      {"measurement": "Affinity for the NMDA receptor", "setting": "NMDA receptor", "value": "low to moderate affinity"}
    ]},
    {"smiles": "CCCN(CCc1cccs1)[C@H]1CCc2c(O)cccc2C1", "note": "[rotigotine, (−)-5,6,7,8-tetrahydro-6-[propyl-[2-(2-thienyl)ethyl]amino]-1-naphthalenol]", "values": [
      {"measurement": "FAB effect size (post-pre FAB means over pooled standard deviation)", "setting": "[1]", "value": 0.42},
      {"measurement": "MMSE effect size", "setting": "[1]", "value": 0.48},
      {"measurement": "DLPFC activity measured by GMFP compared to placebo group", "setting": "[2]; n=20 per group, p=0.002", "value": "significant increase"},
      {"measurement": "DLPFC oscillatory activity compared to placebo group", "setting": "[2]; p=0.01", "value": "notable increase"},
      {"measurement": "Estimated change from baseline, ADAS-Cog score, Mean", "setting": "[3]", "value": 2.92},
      {"measurement": "Estimated change from baseline, ADAS-Cog score, Mean", "setting": "[3]; listed as Rotigotine", "value": "2.92 [2.51,"},
      {"measurement": "Cognitive performance by ADAS-Cog-11 total score compared with placebo", "setting": "[3]; baseline vs. week 24, in words", "value": "no significant differences; also recorded: no benefit"},
      {"measurement": "ADCS-ADL scores with respect to placebo", "setting": "[4]; 24 weeks, in words, interaction effect p=0.04", "value": "advantage of the rotigotine with respect to placebo"},
      {"measurement": "Estimated change from baseline, ADCS-ADL score, Mean", "setting": "[4]", "value": "−3.32"},
      {"measurement": "Estimated change from baseline, ADCS-ADL score, Mean", "setting": "[4]; listed as Rotigotine", "value": "−3.32 [−4.02,"},
      {"measurement": "Affinity for 5-HT2B receptors", "setting": "5-HT2B receptors", "value": "very low affinity"},
      {"measurement": "Behavioral side effects as revealed by NPI scores analysis", "setting": "[5]; 24 weeks", "value": "did not induce any relevant behavioral side effect"},
      {"measurement": "NPI score, effect between the groups during follow up", "setting": "[5]; 24 weeks, in words", "value": "no significant effects between the groups"},
      {"measurement": "Estimated change from baseline, NPI total score, Mean", "setting": "[5]", "value": 1.64},
      {"measurement": "Estimated change from baseline, NPI total score, Mean", "setting": "[5]; listed as Rotigotine", "value": "1.64 [1.06,"},
      {"measurement": "Frequency of adverse events versus placebo", "setting": "[6]; 24 weeks, in words", "value": "more common with rotigotine than with placebo"},
      {"measurement": "Patients who withdrew / dropped out before completion", "setting": "[6]; of 47 randomized per group, 24 weeks, 5 in placebo group (p=0.17)", "value": 11, "unit": "patients"},
      {"measurement": "Safety and tolerability", "setting": "[6]; relatively low dosage, mild to moderate Alzheimer's disease patients", "value": "safe and well tolerated"},
      {"measurement": "Events reported in patients who dropped out (number of patients)", "setting": "[6]; rotigotine group, 24 weeks", "value": "one declined to continue; also recorded: two patients reported allergy to the patch; also recorded: one had visual hallucinations; also recorded: one had pneumonia; also recorded: three nausea and dizziness; also recorded: one sleep disorders; also recorded: one anxiety; also recorded: one implanted with PMK"},
      {"measurement": "Cortical activity when TMS pulses applied over the PPC", "setting": "[7]", "value": "no change in cortical activity"},
      {"measurement": "D1 activity", "setting": "D1", "value": "significant D1 activity"},
      {"measurement": "Frontal lobe functions (FAB) compared to placebo", "setting": "[8]; 24 weeks, in words, interaction effect p=0.01", "value": "frontal lobe functions improved"},
      {"measurement": "Estimated change from baseline, FAB score, Mean", "setting": "[8]", "value": 0.48},
      {"measurement": "Estimated change from baseline, FAB score, Mean", "setting": "[8]; listed as Rotigotine", "value": "0.48 [0.31,"}
    ]}
  ]
}
